According to patent US12534496B2, “Polymorphic forms of Cyclo (-His-Pro) and methods of use to treat kidney disease” (NovMetaPharma Co., Ltd., priority 2018, dated 2026):

Tests used:
Format in all cases: physicochemical
[1] = Dry stability at 35, 40, 50 and 65 °C (XRPD)
Method: Drying stability was carried out at 35° C., 40° C., 50° C., and 65° C. respectively.

[2] = 8-week stability assessment at 40 °C/75% RH (XRPD, appearance, chiral HPLC); settings: for Chiral Purity: chiral HPLC
Method: XRPD analysis was carried out on a PANalytical X'pert pro, scanning the samples between 3 and 35° 2θ. The material was gently ground to release any agglomerates and loaded onto a multi-well plate with Kapton or Mylar polymer film to support the sample. The multi-well plate was then placed into the diffractometer and analyzed using Cu K radiation (α1λ=1.54060 Å; α2=1.54443 Å; β=1.39225 Å; α1: α2 ratio=0.5) running in transmission mode (step size 0.0130° 2θ) using 40 kV/40 mA generator settings.
13. Chiral HPLC Column: Daicel IC (5.0 um, 250*4.6 mm) Column Temperature: 30° C. Injection Volume: 5 μL Flow Rate: 1.0 mL/min Mobile Phase A: 0.01% DEA in n-Hexane Mobile Phase B: EtOH:MeOH=2:8 (v/v) Diluent: Acetonitrile PDA Range: 220 nm Gradient program: […]

[3] = Vacuum oven heating of Pattern 2 (XRPD)
Method: i. 80° C. Heating of Pattern 2 • Ca. 2.2 g of pattern 2 material (prepared as per Section 5.6.1) was placed inside a vacuum oven set to 50° C.; • After 1 hour, a sample was taken and analyzed by XRPD; • Vial was returned to the vacuum oven and the temperature increased to 60° C.; • After 30 minutes, a sample was taken and analyzed by XRPD; • Vial was returned to the vacuum oven and the temperature increased to 80° C.; • After 18 hours at 80° C., a sample was taken and analyzed by XRPD; ii. Fast Rotary Evaporation in Ethanol/DCM • 1 g of received CHP pattern 1 was weighed in to a round bottom flask and dissolved in 40 mL of ethanol; • Once the solid had dissolved, 2 mL of dichloromethane was pipetted into the flask; • The flask was then attached to a rotary evaporator and fast evaporated at ambient temperature under vacuum; • A pale beige solid was recovered an analyzed by XRPD. 7. pH Solubility Assessment

O=C1N[C@@H](Cc2cnc[nH]2)C(=O)N2CCC[C@@H]12 [Pattern 2, Pyrrolo [1,2-a]pyrazine-1,4-dione, hexahydro-3-(1H-imidazol-5-ylmethyl)-, hydrate (1:1), (3S, 8aS)-]
Drying stability (form) ([1]; drying at 35-65 °C, up to 4 days): stable up to 40 °C for at least 4 days
XRPD ([1]; drying at 35 °C, 1 d): Pattern 2
XRPD ([1]; drying at 35 °C, 4 d): Pattern 2
XRPD ([1]; drying at 40 °C, 1 d): Pattern 2
XRPD ([1]; drying at 40 °C, 2 d): Pattern 2
XRPD ([1]; drying at 40 °C, 3 d): Pattern 2
XRPD ([1]; drying at 40 °C, 4 d): Pattern 2
XRPD ([1]; drying at 50 °C, 1 d): Pattern 2
XRPD ([1]; drying at 50 °C, 2 d): Pattern 2
XRPD ([1]; drying at 50 °C, 4 d): Pattern 1
XRPD ([1]; drying at 65 °C, 1 d): Pattern 2
XRPD ([1]; drying at 65 °C, 2 d): Pattern 1
Drying stability (form) ([1]; lab oven under −0.09 MPa): stable at below 40 °C
Appearance ([2]; 2-week): White
Appearance ([2]; 4-week): White
XRPD form after storage ([2]; 4 weeks, listed as CHP pattern 2): no change in form
Appearance ([2]; 8-week): White
XRPD form after storage ([2]; 8 weeks): no change in form
XRPD form after storage ([2]; 8 weeks, listed as CHP pattern 2): no change in form
XRPD form after storage ([2]; 8 weeks, listed as pattern 2 CHP): pattern 2 prevailed
Appearance ([2]; Initial): White
Chiral Purity ([2]; 2-week): >99.9%
Chiral Purity ([2]; 4-week): 99.9%
Chiral Purity ([2]; Initial): 99.9%
XRPD form after storage ([2]; two weeks (14 days), listed as CHP pattern 2): no change in form
XRPD form after heating ([3]; oven 80 °C, additional 18 hours): mixture of Pattern 1 and 2
XRPD form after heating ([3]; vacuum oven 50 °C, 1 hour): predominately Pattern 2 with some Pattern 1 peaks
XRPD form after heating ([3]; vacuum oven, further 30 minutes (1.5 hour in total)): predominantly Pattern 2 with some Pattern 1 peaks
